From ChEMBL document CHEMBL3885861, “Open TG-GATES”

Species: Rattus norvegicus
Experiment: Open TG-GATES - Regimen: Single
Format: toxicity, organism-based, Sprague-Dawley
Set-up: regimen Single, gender Male, age 6 weeks
Conditions: in vivo, po, 0 mg/kg, route gavage, dose level Control; for APTT / Bas / Eos / Fbg / Hb / Ht / Lym / MCH / MCHC / MCV / Mono / Neu / PT / Plat / RBC / Ret / WBC: tissue Blood; for KIDNEY_L / KIDNEY_R / KIDNEY_TOTAL: tissue Kidney; for LIVER: tissue Liver; for A/G / ALP / ALT / AST / BUN / CRE / Ca / Cl / DBIL / GLC / IP / K / LDH / Na / PL / RALB / TBIL / TC / TG / TP / gamma-GTP: tissue Plasma

COC1=CC(=O)C[C@@H](C)[C@]12Oc1c(Cl)c(OC)cc(OC)c1C2=O [GRISEOFULVIN]
TERMINAL_BW (3 h): 211.3 g | APTT (3 h): 21.6 s | Bas (3 h): 0% | Eos (3 h): 0.4% | Fbg (3 h): 224.4 mg/dL | Hb (3 h): 13.4 g/dL | Ht (3 h): 39.4% | Lym (3 h): 76% | MCH (3 h): 21.7 pg | MCHC (3 h): 34.1% | MCV (3 h): 63.5 fL | Mono (3 h): 3% | Neu (3 h): 19.6% | PT (3 h): 12.9 s | Plat (3 h): 119.6 x10_4/uL | RBC (3 h): 620.8 x10_4/ul | Ret (3 h): 7.4% | WBC (3 h): 103.5 x10_2/uL | KIDNEY_L (3 h): 1 g | KIDNEY_R (3 h): 1 g | KIDNEY_TOTAL (3 h): 1.9 g | LIVER (3 h): 9.8 g | A/G (3 h): 1.9 | ALP (3 h): 1043.6 IU/L | ALT (3 h): 45.2 IU/L | AST (3 h): 71 IU/L | BUN (3 h): 10.8 mg/dL | CRE (3 h): 0.3 mg/dL | Ca (3 h): 10.8 mg/dL | Cl (3 h): 104.4 meq/L | DBIL (3 h): 0.2 mg/dL | GLC (3 h): 195.4 mg/dL | IP (3 h): 9.3 mg/dL | K (3 h): 4 meq/L | LDH (3 h): 129.8 IU/L | Na (3 h): 141.4 meq/L | PL (3 h): 167.6 mg/dL | RALB (3 h): 3.5 g/dL | TBIL (3 h): 0.2 mg/dL | TC (3 h): 85.8 mg/dL | TG (3 h): 97.4 mg/dL | TP (3 h): 5.4 g/dL | gamma-GTP (3 h): 1.4 IU/L | TERMINAL_BW (6 h): 210.2 g | APTT (6 h): 18.8 s | Bas (6 h): 0% | Eos (6 h): 0.8% | Fbg (6 h): 231.8 mg/dL | Hb (6 h): 13.8 g/dL | Ht (6 h): 41.1% | Lym (6 h): 79.4% | MCH (6 h): 20.9 pg | MCHC (6 h): 33.6% | MCV (6 h): 62.1 fL | Mono (6 h): 3.2% | Neu (6 h): 16% | PT (6 h): 12.7 s | Plat (6 h): 132.8 x10_4/uL | RBC (6 h): 662.4 x10_4/ul | Ret (6 h): 7.1% | WBC (6 h): 107.8 x10_2/uL | KIDNEY_L (6 h): 1 g | KIDNEY_R (6 h): 1 g | KIDNEY_TOTAL (6 h): 1.9 g | LIVER (6 h): 9 g | A/G (6 h): 1.7 | ALP (6 h): 1097.4 IU/L | ALT (6 h): 34.6 IU/L | AST (6 h): 67 IU/L | BUN (6 h): 8.6 mg/dL | CRE (6 h): 0.3 mg/dL | Ca (6 h): 10.7 mg/dL | Cl (6 h): 103.4 meq/L | DBIL (6 h): 0.098 mg/dL | GLC (6 h): 209.6 mg/dL | IP (6 h): 10 mg/dL | K (6 h): 3.9 meq/L | LDH (6 h): 157.4 IU/L | Na (6 h): 141.4 meq/L | PL (6 h): 138.8 mg/dL | RALB (6 h): 3.4 g/dL | TBIL (6 h): 0.2 mg/dL | TC (6 h): 73.4 mg/dL | TG (6 h): 63.2 mg/dL | TP (6 h): 5.4 g/dL | gamma-GTP (6 h): 1.2 IU/L | TERMINAL_BW (9 h): 209.9 g | APTT (9 h): 18.2 s | Bas (9 h): 0% | Eos (9 h): 1% | Fbg (9 h): 226 mg/dL | Hb (9 h): 13.5 g/dL | Ht (9 h): 39.7% | Lym (9 h): 72.6% | MCH (9 h): 21.4 pg | MCHC (9 h): 33.9% | MCV (9 h): 63.1 fL | Mono (9 h): 2.4% | Neu (9 h): 23.8% | PT (9 h): 12.9 s | Plat (9 h): 117.6 x10_4/uL | RBC (9 h): 628.8 x10_4/ul | Ret (9 h): 7.4% | WBC (9 h): 73.2 x10_2/uL | KIDNEY_L (9 h): 0.9 g | KIDNEY_R (9 h): 0.9 g | KIDNEY_TOTAL (9 h): 1.9 g | LIVER (9 h): 8.3 g | A/G (9 h): 1.7 | ALP (9 h): 1130.6 IU/L | ALT (9 h): 32.4 IU/L | AST (9 h): 59.8 IU/L | BUN (9 h): 11 mg/dL | CRE (9 h): 0.4 mg/dL | Ca (9 h): 10.4 mg/dL | Cl (9 h): 103.6 meq/L | DBIL (9 h): 0.078 mg/dL | GLC (9 h): 206 mg/dL | IP (9 h): 10.1 mg/dL | K (9 h): 4 meq/L | LDH (9 h): 100.8 IU/L | Na (9 h): 141.8 meq/L | PL (9 h): 148.2 mg/dL | RALB (9 h): 3.5 g/dL | TBIL (9 h): 0.1 mg/dL | TC (9 h): 79.8 mg/dL | TG (9 h): 41.2 mg/dL | TP (9 h): 5.5 g/dL | gamma-GTP (9 h): 1.2 IU/L | TERMINAL_BW (24 h): 224 g | APTT (24 h): 18.9 s | Bas (24 h): 0% | Eos (24 h): 1% | Fbg (24 h): 214.4 mg/dL | Hb (24 h): 13 g/dL | Ht (24 h): 39.3% | Lym (24 h): 79.2% | MCH (24 h): 21.6 pg | MCHC (24 h): 33% | MCV (24 h): 65.4 fL | Mono (24 h): 3% | Neu (24 h): 16.6% | PT (24 h): 12.8 s | Plat (24 h): 111.8 x10_4/uL | RBC (24 h): 601.4 x10_4/ul | Ret (24 h): 8% | WBC (24 h): 72.9 x10_2/uL | KIDNEY_L (24 h): 1.1 g | KIDNEY_R (24 h): 1 g | KIDNEY_TOTAL (24 h): 2.1 g | LIVER (24 h): 11.1 g | A/G (24 h): 1.7 | ALP (24 h): 884.4 IU/L | ALT (24 h): 37.6 IU/L | AST (24 h): 61.8 IU/L | BUN (24 h): 16 mg/dL | CRE (24 h): 0.4 mg/dL | Ca (24 h): 10.9 mg/dL | Cl (24 h): 104 meq/L | DBIL (24 h): 0.1 mg/dL | GLC (24 h): 208.8 mg/dL | IP (24 h): 7.5 mg/dL | K (24 h): 4.2 meq/L | LDH (24 h): 148.2 IU/L | Na (24 h): 141.4 meq/L | PL (24 h): 149 mg/dL | RALB (24 h): 3.4 g/dL | TBIL (24 h): 0.2 mg/dL | TC (24 h): 78 mg/dL | TG (24 h): 119.8 mg/dL | TP (24 h): 5.4 g/dL | gamma-GTP (24 h): 1.2 IU/L
